The record followed here is patent publication US20100179221A1, “FLUORINE-SUBSTITUTED AMPHETAMINES AND AMPHETAMINE DERIVATIVES AND USE THEREOF” (Universitat Tubingen, priority 2007, published 2010).

The structures appear in SMILES notation.

The test system of assay [1] is L-DOPA-induced dyskinesias. As to the kind of experiment: L-DOPA-induced dyskinesia (AIM) in 6-hydroxydopamine hemiparkinsonian rats. The class given is in vivo. On the procedure:
(§1) Next, rats (Sprague-Dawley rats; Charles-River, Sulzfeld, Germany) were established as the animal model. The rats were kept in constant, reproducible conditions. Sprague-Dawley rats weighing about 220 to 300 g were used in the experiment. The rats were kept in groups. A light cycle of 12:12 hours was maintained (light switched on from 07:00 to 19:00 hours). For two weeks before the experiments, all the rats were kept in the same room. Water was made available ad libitum, standard animal feed was supplied once daily in an amount of 12 g per animal. All experiments were carried out between 09:00 and 17:00 hours and complied with international ethical standards and the German animal protection law. It was approved by the Animal Protection Commission, Tübingen Administrative Board, ZP 5/01.
24 rats were put in deep narcosis. One hemisphere of the rats was treated in each case with the neurotoxin 6-hydroxydopamine, which destroyed dopaminergic neurons in this hemisphere. […] Then the animals were treated intraperitoneally with an antiparkinsonian drug twice daily for 25 days. This comprised L-DOPA-methyl ester in an amount of 10 mg per kg of body weight with benserazide in an amount of 7.5 mg per kg of body weight (Sigma, Deisenhofen, Germany). Under this treatment the rats developed dyskinesias of the contralateral forepaws.
Control Group: • Continuing this treatment, 12 of the 24 rats were treated additionally with PBS.
Test Group: • The other twelve rats were treated additionally with a fluorinated amphetamine derivative 1-(3,4-difluorophenyl)-2-(N-ethylamino)propane (Formula III).
The results for the treatment are illustrated in FIG. 2. The dyskinesia was quantified (AIM=abnormal involuntary movements) in the control group on five successive days. […] For comparison, the dyskinesia quantification of the test group, i.e., the animals additionally treated with 1-(3,4-difluorophenyl)-2-(N-ethylamino)propane (Formula (III), fMDE, 5 mg/kg), was observed. The measurements were in each case recorded 60 minutes after the animals were treated. […]

Assay [2] has as its system Haloperidol-induced catalepsy. Kind of assay: Haloperidol-induced catalepsy test (descent test), model for parkinsonism. The following applies: for descent latency: rats after haloperidol 0.5 mg/kg, compound 5 mg/kg, FIG. 1, vehicle control about 130 seconds. The class given is in vivo, Sprague-Dawley rats. The procedure: as §1
Haloperidol-induced catalepsy is used here as a model for parkinsonism. Haloperidol is a dopamine receptor-blocking drug. The catalepsy induced in this way comprises akinesia and rigor. The haloperidol model can be treated with all known clinically effective antiparkinsonism drugs, as described above.
Dopamine hypofunction and the consequent parkinsonian symptoms were generated as follows.
Control Group: • Haloperidol (Haldol, Janssen®, Germany) was diluted with phosphate buffered saline (PBS; Sigma, Deisenhofen, Germany) to a concentration of 0.5 mg per ml. Twelve rats were each given an intraperitoneal (i.p.) injection of this solution with an absolute amount of haloperidol of 0.5 mg per kilogram of body weight and an injection with PBS.
Test Group: • Another twelve rats were treated identically, but instead of the PBS injection were given a fluorine-substituted amphetamine derivative 1-(3,4-difluorophenyl)-2-(N-ethylamino)propane (Formula III) dissolved in PBS.
The results of the descent tests are illustrated in FIG. 1. […] The descent latency of rats treated with MDMA (5 mg/kg) was much less, at about 30 seconds, but for the rats treated with 1-(3,4-difluorophenyl)-2-(N-ethylamino)propane (fMDE, Formula (III), 5 mg/kg) it was even lower.

Turning to `CCNC(C)Cc1ccc(F)c(F)c1` (stereo not drawn) [Formula III, 1-(3,4-difluorophenyl)-2-(N-ethylamino)propane], the “onset of the antidyskinetic effect” value in assay [1] (5 mg/kg, administration on successive days) is recorded as “already seen on the first day”. The “number of AIMs (abnormal involuntary movements) per 4 min versus vehicle control” value in assay [1] (5 mg/kg, recorded 60 minutes after treatment, five successive days, FIG. 2) is given as “almost halved”. The “expression of the dyskinesias, test group versus control group” value in assay [1] (in addition to L-DOPA-methyl ester 10 mg/kg + benserazide 7.5 mg/kg) is “significantly reduced”. The “akinesia and rigor in the catalepsy test, test group versus control group” value in assay [2] (haloperidol 0.5 mg/kg i.p., compound dissolved in PBS, versus haloperidol + PBS) is listed as “significantly less pronounced”. Further, the descent latency entry in assay [2] is listed as “even lower”.

Turning to `CNC(C)Cc1ccc2c(c1)OCO2` (stereo not drawn) [MDMA, 3,4-methylene dioxymethamphetamine, reference compound], the descent latency result in assay [2] is on record as “about 30 seconds”.
